Test results reported in patent US12151017B2, “Compositions and methods for hair regrowth” (Nutraceutical Wellness, Inc., priority 2015, dated 2024).

Tested on: hair loss, Stage III Vertex/Stage IV MPHL
Test: Example 1: single subject given the components cumulatively over 7 months
Format: in vivo, human
Settings: taken before the implementations of the disclosure
Description: During month 4, the subject was additionally given a daily 250 mg dose of Ashwagandha extracted from Withania somnifera, containing at least 8% withanolide glycosides and 32% oligosaccharides from the roots and leaves (Sensoril®, Natreon, New Brunswick, NJ) for stress associated with their condition and work. […] During month 5, the subject was additionally given a daily dose of Certified Organic saw palmetto extract Standardized 85-95% fatty acids (Valensa Eustis, FL) in the amount of 640 mg a day. […] During month 6, the subject added a 100 mg dose of tocotrienol/tocopherol complex comprising 78% tocotrienols and 22% tocopherols (Tocomax™ 20%, Carotech, Malaysia) a day. […] Lastly, in month 7, They were additionally given approximately 1000 mg of hydrolyzed marine collagen Types I and III (Youtheory, Tustin, CA) and 100 mg of hyaluronic acid (NOW Foods, Bloomingdale, IL).

O=C(O)CCCC[C@@H]1SC[C@@H]2NC(=O)N[C@@H]21 [biotin]
hair outcome of earlier treatments (subject's history): did not result in a noticeable cessation of hair loss or new hair growth

CC(C)(C)NC(=O)[C@H]1CC[C@H]2[C@@H]3CC[C@H]4NC(=O)C=C[C@]4(C)[C@H]3CC[C@]12C [finasteride]
hair outcome of earlier treatments (subject's history): improvement was minimal
